Assay results from PubChem BioAssay (NCI).
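Each compound was tested at five concentrations against cells in 96-well plates for 48 hours. GI50: concentration for 50% inhibition of growth. TGI: total growth inhibition.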

Legend:
Assay in all cases: growth of human tumour cells (NCI), 48 h
[1] = test system: LXFL 529 NSCLC
[2] = test system: SK-MEL-2 melanoma
[3] = test system: TK-10 renal
[4] = test system: HL-60(TB) leukemia
[5] = test system: DMS 273 small cell lung
[6] = test system: HCT-15 colon
[7] = test system: NCI-H226 lung
[8] = test system: CAKI-1 renal
[9] = test system: SW-620 colon
[10] = test system: HS 578T breast

In the case of `O=C(c1ccccn1)c1nc(-c2ccc(Cl)c(Cl)c2)nc2ccc(Cl)cc12`, the TGI [1] is reported as over 100 µM, the TGI [2] is reported as over 100 µM and the TGI [3] is reported as over 100 µM. For the same molecule, the TGI [4] was over 100 µM, the TGI [5] was over 100 µM and the TGI [6] was over 100 µM. It also gave a TGI [7] of over 100 µM, a TGI [8] of over 100 µM and a TGI [9] of over 100 µM.
In the case of `COc1cc2c(cc1OC)C(=O)Cc1ccc3c(c1CNCC2)OCO3`, the TGI [1] is reported as over 100 µM, the TGI [2] is reported as over 100 µM and the TGI [3] is reported as over 100 µM. It also gave a TGI [6] of over 100 µM, a TGI [8] of over 100 µM and a TGI [9] of over 100 µM.
With `Cc1nc2nn(Cc3ccccc3)cc2c(=O)o1` the TGI [1] was over 100 µM, the TGI [2] was over 100 µM and the TGI [3] was over 100 µM. It also gave a TGI [4] of over 100 µM, a TGI [5] of over 100 µM and a TGI [6] of over 100 µM. For the same molecule, the TGI [7] was over 100 µM and the TGI [9] was over 100 µM.
`Fc1ccc2c(c1)SC1Oc3ccccc3-c3c1c-2nn3-c1ccccc1` (stereo not drawn) showed a TGI [1] of over 100 µM, a TGI [2] of over 100 µM and a TGI [3] of over 100 µM. For the same molecule, the TGI [4] was over 100 µM, the TGI [5] was over 100 µM and the TGI [9] was over 100 µM.
For `CC(C)[C@H]1CO[C@@H]2O[C@H](C)CC(=O)N21`, the TGI [1] was over 100 µM, the TGI [2] was over 100 µM and the TGI [3] was over 100 µM. It also gave a TGI [4] of over 100 µM, a TGI [6] of over 100 µM and a TGI [7] of over 100 µM. It also gave a TGI [8] of over 100 µM and a TGI [9] of over 100 µM.
`C/C=C/C(=O)[C@@H](O)C(C)C` showed a TGI [1] of over 100 µM, a TGI [2] of over 100 µM and a TGI [3] of over 100 µM. It also gave a TGI [5] of over 100 µM, a TGI [6] of over 100 µM and a TGI [7] of over 100 µM. It also gave a TGI [8] of over 100 µM and a TGI [9] of over 100 µM.
In the case of `Clc1ccccc1C1N2CCCCC2[C@@H]2c3[nH]c4ccccc4c3CCN12` (stereo partly drawn), the TGI [1] is reported as over 100 µM, the TGI [2] is reported as 34.1 µM and the TGI [3] is reported as 60 µM. The TGI [4] was over 100 µM, the TGI [5] was over 100 µM and the TGI [6] was 29.9 µM. It also gave a TGI [9] of 31 µM.
With `COc1ccc(C(=O)Nc2ccc(S(=O)(=O)NCC(=O)O)cc2)cc1` the TGI [1] was over 100 µM, the TGI [2] was over 100 µM and the TGI [3] was over 100 µM. For the same molecule, the TGI [4] was over 100 µM, the TGI [5] was over 100 µM and the TGI [6] was over 100 µM. The TGI [8] was over 100 µM and the TGI [9] was over 100 µM.
`CCOC(=O)C12CCSC1C1(C#N)C(C#N)=CC2(N=P(c2ccccc2)(c2ccccc2)c2ccccc2)n2c(=O)n(-c3ccccc3)c(=O)n21` (stereo not drawn) showed a TGI [1] of over 100 µM, a TGI [2] of over 100 µM and a TGI [3] of over 100 µM. It also gave a TGI [4] of 71.5 µM, a TGI [6] of over 100 µM and a TGI [7] of over 100 µM. For the same molecule, the TGI [8] was over 100 µM and the TGI [9] was over 100 µM.
`CN(C)CCNC(=O)c1cccc2ccc(-c3cccnc3)nc12` gave a TGI [2] of 21.4 µM, a TGI [3] of 7.05 µM and a TGI [4] of over 100 µM. The TGI [5] was 13.1 µM, the TGI [6] was 17.4 µM and the TGI [7] was 22.2 µM. The TGI [8] was 32.9 µM and the TGI [9] was 27.5 µM.
Work on `O=c1c2cc(Br)ccc2nc(-c2ccccc2)n1NCC1(O)OCC(O)C(O)C1O` (stereo not drawn) yielded a TGI [1] of over 100 µM, a TGI [2] of over 100 µM and a TGI [4] of over 100 µM. For the same molecule, the TGI [5] was over 100 µM, the TGI [6] was over 100 µM and the TGI [7] was over 100 µM. It also gave a TGI [8] of over 100 µM and a TGI [9] of over 100 µM.
`Nc1c(S(=O)(=O)O)cc(Nc2cccc(S(N)(=O)=O)c2)c2c1C(=O)c1ccccc1C2=O` showed a TGI [2] of over 100 µM, a TGI [3] of over 100 µM and a TGI [4] of over 100 µM. The TGI [10] was 69.9 µM, the TGI [6] was over 100 µM and the TGI [7] was over 100 µM. For the same molecule, the TGI [8] was over 100 µM and the TGI [9] was over 100 µM.
Molecule `Cc1c2cnccc2c(C)c2c1c1cc(C(=O)O)ccc1n2C` has a GI50 [2] of 1.38 µM, a TGI [2] of 4.03 µM and a GI50 [3] of 1.79 µM. For the same molecule, the TGI [3] was 8.96 µM, the GI50 [4] was 2.09 µM and the TGI [4] was 6.64 µM. It also gave a GI50 [10] of 0.891 µM, a TGI [10] of 4.82 µM and a GI50 [6] of 0.804 µM. For the same molecule, the TGI [6] was 7.82 µM, the GI50 [7] was 0.454 µM and the TGI [7] was 2.47 µM. For the same molecule, the GI50 [8] was 0.616 µM, the TGI [8] was 8.34 µM and the GI50 [9] was 0.49 µM. It also gave a TGI [9] of 6.7 µM.
